In experiment [1] the test system is U87MG tumorspheres. The experiment in a line: Tumorsphere formation from U87MG cells in NBM. The format is cell-based, human. Particulars: NBM with B27, EGF+bFGF. As to the method:
FIG. 9B, first panel, illustrates cells of U87MG cultured in DMEM. Cells cultured in NBM with B27 supplement in the presence of EGF+bFGF developed into tumorspheres within 3-5 days (see FIG. 9A, middle panel).
(§1) Gliosphere culture. To generate gliospheres, the following standardized method was utilized. Briefly, U87MG and T98G glioblastoma cells were dissociated from DMEM cultures using trypsin-EDTA solution and reseeded in neurobasal medium (NBM) supplemented with B27 in the presence of 10 ng/ml bFGF and EGF. The cells (5×10^4/ml/well) were cultured in 12 well plates in 5% CO2-incubator at 37° C. with a medium change of every 2-3 days. The cells were photographed (200× and 400×) under phase contrast microscope (AX70, Olympus Optical, Japan) after 10-12 days. The primary human glioblastoma cells were also dissociated from DMEM using trypsin-EDTA. The cells were cultured (1×10^5 cells/ml/well) in neurobasal medium (NBM) supplemented with B27 in the presence of 10 ng/ml of bFGF and EGF in 12 well plates in 5% CO2-incubator at 37° C. The resulting tumorspheres were photographed under light microscope.

The subject of experiment [2] is U87MG and T98G human glioma cells, their respective BTSC's, and CD133+ cells. The experiment in a line: Proliferation of glioma cells, BTSC's and CD133+ cells, result in words. Type of experiment: cell-based. As to the method:
(§2) The use of nuclear receptor agonists in the treatment of brain tumors was examined by testing the effect of the specific ligands on the proliferation of brain tumor and BTSC'S. Prior to studying the anti-tumor effect of melatonin, it was necessary to determine the viability of glioma and BTSC's in the cultures used in this study. […] Their proliferation was measured by WST-1 assay. The ligands for all six nuclear receptors induced anti-proliferative activity in brain tumor stem cells as well as human glioma cells. It was also noted that the selected nuclear receptor agonists induced anti-tumor activity in brain tumor stem cells and that the different agonists for the highly altered nuclear hormone receptors provided different levels of inhibition for brain tumor cells and BTSC's in cultures. As a result, the nuclear hormone receptors having altered expression and activation profile in BTSC can be selected to specifically target BTSC's. Additional information regarding the individual studies is provided below:
(§3) Proliferation assay. Proliferation of gliosphere cells was measured using WST-1 assay (Roche Applied Sciences, Indianapolis, Ind.) and ^3H thymidine uptake assay. Briefly, T98G and U87MG glioma and gliosphere cells were cultured in 96-well tissue culture plates (1×10^4/200 μl/well) in neurobasal medium with B27 serum supplement in the presence of 10 ng/ml EGF+bFGF and increasing doses of nuclear receptors in 5% CO2-incubator at 37° C. After 48 hrs, WST-1 reagent ([…]) was added and the absorbance was measured at 460 nm using 2100 microplate reader (Alpha Diagnostics Inc., San Antonio, Tex.) as a measure of viable cell count. This assay is based on the cleavage of the tetrazolium salt, WST-1, by mitochondrial dehydrogenases in viable cells and a decrease in OD corresponds to decrease in viable cell count. In some experiments, ^3H thymidine (0.5 μCi/ml) was added at 48 hours, the cells harvested after 72 hours using a Tomtech harvester 96 (Hamden, Conn., USA) and the amount of ^3H thymidine uptake counted on a Perkin Elmer Microbeta liquid scintillation counter to provide a measure of proliferation.

Experiment [3] relates to T98G human glioma cells. The experiment in a line: WST-1 proliferation assay, T98G glioma cells. The note with it: anti-tumor activity, 48 hours, read-out: EC50, T98-glioma. The format is cell-based. On the procedure: as §2
(§4) Cell culture. The U87MG and T98G brain tumor cell-lines, established from human glioblastoma (Ponten, et al., 1968) were obtained from American Type Culture Collection (ATCC, Manassas, Va.). The cells were cultured in Dulbecco's Modified Eagle Medium (DMEM) (Invitrogen, California, USA) supplemented with 10% FBS, 1 mM Sodium pyruvate, 100 U/ml penicillin G, 100 μg/ml Streptomycin, 2 mM glutamine, 1 mM MEM nonessential amino acids and 50 μM 2-mercaptoethanol in 5% CO2 incubator at 37° C. The cells were dissociated using 0.25% trypsin, 0.53 mM EDTA solution and sub-cultured once in 3-5 days. Primary brain tumor tissue/cells were also obtained from the tissue repository at Methodist Research Institute and cultured (1×10^5 cells/ml/well) in DMEM medium supplemented with 10% FBS and sub-cultured once in 10-12 days.
as §3, with “This assay is based on the cleavage of the tetrazolium salt, WST-1, by mitochondrial dehydrogenases in viable cells and a decrease in OD corresponds to decrease in viable cell count.” left out
On the technique in general: Formazan colour is commonly taken as a measure of viable cells.

For experiment [4], the system named is T98G BTSC's (brain tumor stem cells). The experiment in a line: WST-1 proliferation assay, T98G BTSC's. The format is cell-based. The note with it: Homo sapiens, anti-tumor activity, 48 hours, read-out: EC50, T98-BTSC. As to the method:
(§5) The use of nuclear receptor agonists in the treatment of brain tumors was examined by testing the effect of the specific ligands on the proliferation of brain tumor and BTSC'S. Prior to studying the anti-tumor effect of melatonin, it was necessary to determine the viability of glioma and BTSC's in the cultures used in this study. […] Their proliferation was measured by WST-1 assay. […] Additional information regarding the individual studies is provided below:
as §1
(§6) Proliferation assay. Proliferation of gliosphere cells was measured using WST-1 assay (Roche Applied Sciences, Indianapolis, Ind.) and ^3H thymidine uptake assay. […] After 48 hrs, WST-1 reagent ([…]) was added and the absorbance was measured at 460 nm using 2100 microplate reader (Alpha Diagnostics Inc., San Antonio, Tex.) as a measure of viable cell count. […] In some experiments, ^3H thymidine (0.5 μCi/ml) was added at 48 hours, the cells harvested after 72 hours using a Tomtech harvester 96 (Hamden, Conn., USA) and the amount of ^3H thymidine uptake counted on a Perkin Elmer Microbeta liquid scintillation counter to provide a measure of proliferation.

The subject of experiment [5] is T98G-CD133+ cells. The experiment in a line: WST-1 proliferation assay, T98G-CD133+ cells. The format is cell-based. Particulars: Homo sapiens, anti-tumor activity, 48 hours. On the procedure: as §2
(§7) Isolation and expansion of CD133+ BTSC: The CD133+ BTSC were isolated from human glioblastoma cells by magnetic bead technique using CD133 antibody (Miltenyi Biotec, Auburn, Calif., USA). The U87MG and T98G glioma cells and tumor spheres expanded as described above were dissociated by treatment with Trypsin-EDTA solution at 37° C. for 10 minutes. The cells (1×10^7 cells) were washed in cold sterile PBS, re-suspended in 100 μl blocking buffer (PBS, pH 7.2, 0.5% BSA, 2 mM EDTA) with 50 μl of FcR blocking reagents (Miltenyi Biotech, Auburn, Calif., USA) and incubated at 4° C. for 30 minutes. The cells were washed and re-suspended in 200 μl of anti-PE microbeads in the buffer and incubated at 4° C. for 30 minutes. The CD133+ cells were separated by passing through an LS column in the midi Macs separation unit. The column effluent was collected to provide a CD133 negative population. The columns were washed with buffer, removed from the Mac separation unit and placed in a sterile 15 ml tube. […] The cells obtained were counted and expanded in culture or used directly for the experiments described herein.
as §6

In experiment [6] the test system is U87MG human glioma cells. As to the kind of experiment: WST-1 proliferation assay, U87 glioma cells. The format is cell-based. Particulars: U-87 MG, anti-tumor activity, 48 hours. On the procedure:
as §2, §4
as §3, with “This assay is based on the cleavage of the tetrazolium salt, WST-1, by mitochondrial dehydrogenases in viable cells and a decrease in OD corresponds to decrease in viable cell count.” left out

The test system of experiment [7] is U87 BTSC's (brain tumor stem cells). As to the kind of experiment: WST-1 proliferation assay, U87 BTSC's. Type of experiment: cell-based. The note with it: Homo sapiens, anti-tumor activity, 48 hours. As to the method:
as §5, §1, §6

Experiment [8] has as its system U87-CD133+ cells. The experiment in a line: WST-1 proliferation assay, U87-CD133+ cells. The format is cell-based. Particulars: Homo sapiens, anti-tumor activity, 48 hours. On the procedure: as §2, §7, §6
Experiment [9] has as its system T98G tumorspheres. The experiment in a line: Tumorsphere formation from T98G glioblastoma cells in NBM. The note with it: NBM with B27, EGF+bFGF. The format is cell-based, human. As to the method:
Initially culture conditions were established for expanding BTSC's as tumorspheres from brain tumor cells in culture. […] The resulting tumorspheres increased substantially in size within 7 to 10 days. FIG. 1 illustrates typical glioblastoma cells cultured in DMEM supplemented with 10% FBS and the corresponding tumorspheres cultured in neurobasal medium (NBM) with B27 supplement and 10 ng/ml EGF+bFGF. The tumorspheres illustrated in FIG. 1 were photographed after 10 days (200×).
as §1

Take `CCCCCC=CC=C1C(=O)C=C[C@@H]1CC=CCCCC(=O)O` [15d-PGJ2, 15-deoxy Δ^12,14-prostaglandin J2]: the “tumorsphere size and number, U87MG” value in experiment [1] is recorded as “significantly decreased”. Further, the “proliferation of glioma cells and BTSC's” value in [2] is “inhibited the proliferation”.
`CCCC(=O)SCCNC(=O)CCNC(=O)[C@H](O)C(C)(C)COP(=O)(O)OP(=O)(O)OC[C@H]1O[C@@H](n2cnc3c(N)ncnc32)[C@H](O)[C@@H]1OP(=O)(O)O` [Butyryl CoA]: the EC50 (commonly the midpoint of the concentration-response curve) was determined as 85 ± 5.59 µM in experiment [3]; 85.5 ± 22.4 µM in [4]; 54.7 ± 5.76 µM in experiment [5]; 20.3 ± 0.57 µM in [6]; 72.5 ± 1.57 µM in experiment [7]; 17.6 ± 0.29 µM in experiment [8]. Further, the “number and size of T98G tumorspheres” value in experiment [9] is “significant and dose-dependent decrease”. The “proliferation of glioma cells and BTSC's” value in [2] is reported as “dose-dependent decrease in the proliferation”.
In the case of `Clc1ccc(-c2nc3sccn3c2/C=N/OCc2ccc(Cl)c(Cl)c2)cc1` [CITCO], the “number and size of T98G tumorspheres” value in [9] was “significant and dose-dependent decrease”. The “proliferation of glioma cells and BTSC's” value in experiment [2] was “inhibits the proliferation”.
`O=C(O)Cc1cccc(OCCCN(Cc2cccc(C(F)(F)F)c2Cl)CC(c2ccccc2)c2ccccc2)c1` [GW3965]: the EC50 in [3] is 4.85 ± 1 µM; in [4] it was 12.2 ± 3.04 µM; in experiment [5], 3.28 ± 0.64 µM; in experiment [6], 4.22 ± 0.23 µM; in experiment [7] it was 1.55 ± 0.43 µM; in experiment [8] it was 2.96 ± 0.21 µM. Also, the “number and size of T98G tumorspheres” value in experiment [9] was “significant and dose-dependent decrease”. Also, the “proliferation of glioma cells and BTSC's” value in experiment [2] is recorded as “inhibits the proliferation”.
Turning to `COc1ccc2[nH]cc(CCNC(C)=O)c2c1` [Melatonin], the EC50 in experiment [3] was determined as 31 ± 12 µM; in experiment [4], 44.7 ± 6.18 µM; in experiment [5], 2.45 ± 0.43 µM; in experiment [6] it was 18.66 ± 0.18 µM; in experiment [7], 7.91 ± 1.34 µM; in experiment [8], 2.6 ± 0.25 µM. Also, in [9], the “number and size of T98G tumorspheres” value was “significant and dose-dependent decrease”. Besides, the “proliferation of glioma cells and BTSC's” value in experiment [2] is given as “inhibits the proliferation”.
In the case of `CO[C@H]1/C=C/O[C@@]2(C)Oc3c(C)c(O)c4c(O)c(c(/C=N/N5CCN(C)CC5)c(O)c4c3C2=O)NC(=O)/C(C)=C\C=C\[C@H](C)[C@H](O)[C@@H](C)[C@@H](O)[C@@H](C)[C@H](OC(C)=O)[C@@H]1C` [Rifampicin], the EC50 was 12.8 ± 1.97 µM in experiment [3], 1.99 ± 0.47 µM in [5], 25.4 ± 4 µM in [6] and 1.2 ± 0.2 µM in experiment [8].

(Values after patent US20090252716A1, “METHODS FOR IDENTIFYING NUCLEAR RECEPTOR/LIGAND COMBINATIONS FOR TARGETING BRAIN TUMOR STEM CELLS AND FOR THEIR USE” (Clarian Health Partners, Inc. d/b/a Methodist Research …, priority 2008, published 2009).)
